Measurements from patent EP4624470A1, “YOHIMBINE DERIVATIVE, AND PREPARATION METHOD THEREFOR AND PHARMACEUTICAL COMPOSITION AND USE THEREOF” (Shanghai Institute of Materia Medica, Chinese Academy of …, priority 2022, dated 2024).

Columns and labels:
α2A-AR = biological target: T1, α2A-AR (Homo sapiens, UniProt P08913); test: α2A-AR antagonist assay (calcium flux, Fluo-4, FlexStation II); assay type: cell-based; details: antagonistic activity against agonist UK14304 in cells stably expressing α2A-AR/Ga16
T1 construct: expressed in transfected cells; stably expressing α2A-AR/Gα16
T1 sequence (P08913 1-465): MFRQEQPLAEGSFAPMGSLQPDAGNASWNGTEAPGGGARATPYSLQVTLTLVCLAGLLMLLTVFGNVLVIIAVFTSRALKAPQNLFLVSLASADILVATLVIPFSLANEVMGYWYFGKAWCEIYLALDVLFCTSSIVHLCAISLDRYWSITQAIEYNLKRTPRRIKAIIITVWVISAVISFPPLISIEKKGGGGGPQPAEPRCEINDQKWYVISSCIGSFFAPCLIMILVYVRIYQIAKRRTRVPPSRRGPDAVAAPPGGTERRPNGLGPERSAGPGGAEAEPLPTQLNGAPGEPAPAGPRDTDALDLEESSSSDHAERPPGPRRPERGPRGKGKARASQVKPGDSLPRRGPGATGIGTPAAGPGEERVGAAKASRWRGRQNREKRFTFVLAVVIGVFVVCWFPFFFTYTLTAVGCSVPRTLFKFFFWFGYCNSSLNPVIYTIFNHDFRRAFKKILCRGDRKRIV
From the text: By establishing a cell line co-transfected with the target receptor and Ga16, the receptor can be activated to cause the activation of Gα16 protein, which in turn activates phospholipase C (PLC) to produce IP3 and DAG. IP3 can bind to the IP3 receptors on the endoplasmic reticulum and mitochondria in the cell, thereby causing the release of intracellular calcium. Therefore, measuring the changes in intracellular calcium can be used as a method to detect the activation state of the target receptor. Fluo-4/AM is a calcium fluorescent probe indicator used to measure calcium ions. As a non-polar lipid-soluble compound, after entering the cell, the AM group dissociates under the action of cell lipases and releases Fluo-4; since Fluo-4 is a polar molecule that is not easy to pass through the lipid bilayer membrane, it can keep in the cell for a long time. Finally, the level of Ga protein activation can be reflected by measuring the excited fluorescence intensity.
Before the test, the test compound was dissolved in DMSO to prepare a stock solution, which was diluted with culture medium to the required concentration when used.

type 2 diabetic mice = test: Blood sugar lowering effect in high-sugar and high-fat diet-induced type 2 diabetes mouse model; assay type: in vivo, C57BL\6J mice
From the text: A high-sugar and high-fat diet-induced type 2 diabetes mouse model was used in this experiment, and the following tests were mainly conducted: • 1) Effect of single intraperitoneal administration on basal blood glucose, glucose tolerance and insulin sensitivity in diabetic mice. • 2) Effect of single gavage administration on glucose tolerance and insulin sensitivity in diabetic mice. • 3) Effect of continuous chronic intraperitoneal administration on basal blood glucose in diabetic mice.
C57BL\6J mice were fed with a high-sugar and high-fat diet for 3 consecutive months. The test experiment was conducted after the average body weight of the mice stabilized at more than 50g and the average basal blood sugar value stabilized at more than 12mmol/L.
Blood glucose level was mainly measured by measuring tail vein blood using a blood glucose meter. For the test of basal blood glucose effect, the mice were on a normal diet. The basal blood glucose value before administration was first measured, and then a single intraperitoneal injection or a single gavage of the yohimbine derivative C19 (10 mg/kg mouse body weight) was given, and the venous blood glucose level was measured 15, 30, 60, 90, and 120 minutes after administration. The mouse glucose tolerance test was performed after the mouse has eaten for 16 hours overnight. 30 minutes after a single intraperitoneal injection or a single gavage of the yohimbine derivative C19 (10 mg/kg mouse body weight), glucose (1.5 g/kg) was injected intraperitoneally, and the venous blood glucose level was measured 15, 30, 60, 90, and 120 minutes later. Mouse insulin sensitivity was tested after the mouse has eaten for 6 hours. 30 minutes after a single intraperitoneal injection or single gavage of yohimbine derivative C19 (10 mg/kg mouse body weight), insulin (1 UI/kg) was injected intraperitoneally, and the venous blood glucose level was measured 15, 30, 60, 90, and 120 minutes later. For the effect of chronic administration on blood glucose levels, diabetic mice were intraperitoneally injected with yohimbine derivative C19 (10 mg/kg) every day for 12 consecutive days, and the basal blood glucose level of mice under free diet was measured every day before drug injection. The control group was injected with normal saline or gavage.

[1] = Tissue distribution test in mice; assay type: in vivo; details: gavage 10 mg/kg
Procedure: Mice were fasted for more than 12 h and had free access to water. Table 3 Experimental Scheme for tissue distribution of Compound C27 in mice
Mice were fasted for more than 12 h and had free access to water.
• (1) Tissue distribution test in mice: The animals in each group were anesthetized and killed 2 h after administration. The brain, pancreas, heart, liver, and kidney tissues were collected by dissection, washed with physiological saline, and stored in a -20 °C refrigerator for testing. At the same time, 0.3 mL of whole blood was collected and placed in an EDTA-K2 anticoagulant tube. The blood was separated by centrifugation at 11,000 rpm for 5 min and stored in a -20 °C refrigerator for testing.
The concentration of unchanged drug in plasma and tissues was determined.
(2) Tissue distribution test of compound C27 in mice: At corresponding time points (0.25, 2 and 8 h) after gavage administration, mice were bled to death through the abdominal aorta. Brain, heart, liver, lung, pancreas and kidney tissues were immediately collected by dissection, and part of the plasma was collected. The operation was carried out in an ice water bath.
Centrifugation conditions: 11000 rpm for 5 min to separate plasma (about 200 µL).

[2] = relative ratio of tissue distribution concentration to blood concentration

**Q.** Which results are given for `N#Cc1ccc(Cc2noc([C@@H]3[C@H]4C[C@H]5c6[nH]c7ccccc7c6CCN5C[C@@H]4CC[C@@H]3O)n2)cc1` [Compound C19]?
**A.** IC50 (α2A-AR): 0.3 to 0.5 µM; basal blood glucose level (type 2 diabetic mice; chronic intraperitoneal injection, 10 mg/kg once a day, 12 consecutive days (Figure 8)): stably maintain the basal blood sugar level of diabetic mice at a state closer to the normal level; glucose tolerance (type 2 diabetic mice; single gavage administration, 10 mg/kg (Figure 6)): improve glucose tolerance; insulin sensitivity (type 2 diabetic mice; single gavage administration, 10 mg/kg (Figure 7)): increase insulin sensitivity; basal blood glucose level (type 2 diabetic mice; single intraperitoneal injection, 10 mg/kg (Figure 3)): significantly reduce the high blood sugar level of diabetic mice; glucose tolerance (type 2 diabetic mice; single intraperitoneal injection, 10 mg/kg (Figure 4)): improve glucose tolerance; insulin sensitivity (type 2 diabetic mice; single intraperitoneal injection, 10 mg/kg (Figure 5)): increase insulin sensitivity; pancreatic distribution [1]: good pancreatic distribution; brain tissue distribution compared with yohimbine [1, 2]: lower brain tissue distribution than yohimbine; brain tissue distribution, times lower than that of yohimbine [1, 2]: about forty times lower
